# Laboratory results reported in patent publication US8501813B2, “γ-secretase inhibitor” (Kabushiki Kaisha Yakult Honsha, priority 2007, dated 2013).
# Like-named read-outs stand apart in the source and are kept apart here. *: point of attachment. Boc = CC(C)(C)OC(=O)*
# Columns and labels:
# γ-secretase [1] = target: T1, γ-secretase (Homo sapiens, UniProt P49768); experiment: Aβ secretion by C99 cells (HEK293 stably expressing APP-C99), γ-secretase inhibitory effect, Aβ ELISA of culture supernatant; format: cell-based; details: for IC50: interpolated from the two concentrations that bracket 50%
# From the text: HEK293 cells (ATCC) were transfected with APP C99 pcDNA3.1 (the nucleotide sequence of its coding region is shown in SEQ ID NO: 1) (J. Biol. Chem., 2003, 278, 49448-49458). Cell strains (C99 cells) confirmed to stably express APP-C99 (artificial APP fragment that originally lacked a polypeptide portion to be cleaved by α- or β-secretase at the first stage in the two-stage reaction of Aβ production from APP) were used to study the γ-secretase inhibitory effects of four test substances (TLVM-5, TLVM-7, TLVM-8, and TLVM-9) in vitro.
# (§1) In the present test, a medium used for the C99 cells was 500 mL of a Dulbecco's Modified Eagle's Medium (DMEM, Sigma-Aldrich Corp.) supplemented with 55 ml of fetal bovine serum (Biosource), 5.5 ml of MEM non-essential amino acids (Gibco), and 5.5 ml of penicillin/streptomycin (Gibco).
# The C99 cells were suspended at a concentration of 5×10^4 cells/ml in the medium. The suspension was added at a concentration of 1 ml (5×10^4 cells)/well to a 24-well collagen plate (Akita Sumitomo Bakelite Co., Ltd.) and cultured for 3 days. Then, the medium in the wells was removed, and the wells were washed with a medium (1 ml/well). The medium was removed, and a fresh medium was then added thereto at a concentration of 0.4 ml/well. The cells were exposed to the test substances and positive controls and incubated for 24 hours, and the culture supernatants were collected. The positive controls used were L-685,458 (CALBIOCHEM) and Boc-Leu-Val-Met-Leu-OMe (hereinafter, referred to as LVML-1) disclosed in Example 1 of Patent Document 1 (WO03/091278). The exposure concentrations were set to four concentrations, 0.3, 1, 3, and 10 μmol/L, for all the test substances and the positive controls. The concentrations of Aβ (1-40) and Aβ (1-42) in the culture supernatants were measured using Human Amyloid β (1-40) (N) Assay Kit (L)-IBL and Human Amyloid β (1-42) (N) Assay Kit (L)-IBL (Immuno-Biological Laboratories, Co., Ltd.). The amounts of Aβ (1-40) and Aβ (1-42) secreted were calculated by subtracting the concentrations of Aβ (1-40) and Aβ (1-42) originally contained in the medium before the C99 cell inoculation, from the measured concentrations thereof, respectively. Moreover, when the Aβ secretion rate of a negative control (5% DMSO-containing medium, resulting in 1% DMSO at the final concentration) is defined as 100%, Aβ secretion rates at each concentration of the test substances and the positive controls were calculated.
# The TLVM-5, TLVM-7, TLVM-8, and TLVM-9 confirmed in Example 8 to have strong inhibitory activities against γ-secretase activities were subjected to an additional experiment at low concentrations (exposure concentrations were set to three concentrations, […], for the test substances and to four concentrations, 0.1, 0.3, 1, and 3 μmol/L, for the positive control).
# Moreover, Aβ secretion rates at two concentrations of the test substance that bracket the concentration at which Aβ secretion was inhibited by 50% (IC50) were used to calculate IC50 according to the following equation: IC50:10^[LOG(A/B)*(50−C)/(D−C)+LOG(B)],wherein
# A: of the two points that bracket 50% inhibition, the higher concentration of the test substance,
# B: of the two points that bracket 50% inhibition, the lower concentration of the test substance,
# C: secretion rate (%) at the concentration B, and
# D: secretion rate (%) at the concentration A.
# C99 cells = experiment: Cytotoxicity on C99 cells, cell viability by Cell Counting Kit-8; format: cell-based, human; details: 24 h
# Description: The cytotoxicity of four test substances (TLVM-5, TLVM-7, TLVM-8, and TLVM-9) on the C99 cells was measured using a method shown below.
# as §1
# The C99 cells were suspended at a concentration of 0.75×10^5 cells/ml in the medium. The suspension was added at a concentration of 100 μL (0.75×10^4 cells)/well to a 96-well collagen plate (Akita Sumitomo Bakelite Co., Ltd.) and cultured for 2 days. Then, the medium (corresponding to 50 μL/well) in the wells was removed, and a fresh medium was added thereto at a concentration of 30 μL/well. […] Then, the cell viability was measured using Cell Counting Kit-8 (Dojindo Laboratories).
# γ-secretase [2] = target: T1, γ-secretase; experiment: Substrate specificity: β-Alcα secretion by HEK293 cells transfected with FLAG Alcα C150, anti-FLAG immunoprecipitation/western blot; format: cell-based; details: for (ii) β-Alcα secretion rate of HEK293 cells: 24 h, FLAG Alcα C150, negative control = 100%
# Description: (§2) Of families constituting human Alcadein (hereinafter, referred to as Alc) known as a substrate for γ-secretase to colocalize with APP in brain neurons, an artificial Alcα fragment (hereinafter, referred to as Alcα C150) whose first extracellular cleavage site and γ-secretase cleavage site were determined was used to study the substrate specificity of the γ-secretase inhibitor of the present invention. β-Alcα produced from a first cleavage construct of Alcα cannot be quantified by sELISA used in Aβ measurement. Therefore, proteins with an attached FLAG tag at the N termini of first cleavage constructs of Alcα and of C99 were expressed by cells. FLAG-Aβ-like peptides secreted into a medium were collected by immunoprecipitation using anti-FLAG antibodies and detected by western blotting using the antibodies. A specific method thereof is shown below.
# (§3) HEK293 cells (ATCC) (1×10^7 cells/10 cm dish) cultured in 6 ml of 10% FCS-containing DMEM (Wako Pure Chemical Industries, Ltd.) were transfected with FLAG APP C99 pcDNA3.1 (the nucleotide sequence of its coding region is shown in SEQ ID NO: 2) (J. Biol. Chem., 2003, 278, 49448-49458 (which was prepared from pcDNA3-APPC99)) or with FLAG Alcα C150 pcDNA3.1 (the nucleotide sequence of its coding region is shown in SEQ ID NO: 3) (J. Biol. Chem., 2004, 279, 24343-24354 (which was the same as pcDNA3AlcαΔE)) using Lipofectamine 2000 (Invitrogen Corp.) according to the protocol included in the reagent. Each inhibitor and a positive control (γ-Secretase Inhibitor IX (DAPT)) (Calbiochem Contact Information) were separately added at a concentration of 0.2 or 2 μmol/L. The same dose of DMSO (Wako Pure Chemical Industries, Ltd.) thereas was added as a negative control. 24 hours later, the culture supernatants were collected, and samples were preliminarily purified using beads (100 μL of 50% (v/v) Protein-G Sepharose (GE Healthcare)). Then, 15 μL of 50% (v/v) anti-FLAG antibody M2 beads (Sigma-Aldrich Corp.) were added thereto, and the samples were incubated at 4° C. for 1 hour. The beads were collected by centrifugation and washed three times with a buffer (10 mM Tris-HCl [pH 8.0], 140 mM NaCl, 0.1% n-octyl glucoside, 0.025% sodium azide), and Aβ and β-Alcα in the medium were collected. The proteins were subjected to SDS-PAGE using a 15% Tris-Tricine gel (Anal Biochem., 1987, 166 (2), 368-379) and then transferred to a membrane. The membrane was boiled for 5 minutes in PBS. Then, anti-FLAG M2 antibodies (5 μg/ml) (Sigma-Aldrich Corp.) were added thereto, and the membrane was incubated, followed by detection using a western blotting detection reagent ECL (GE Healthcare). This signal was quantified using Versa-doc system (Bio-Rad Laboratories, Inc.) to calculate protein secretion rates (the protein secretion rate of the negative control is defined as 100%).
# γ-secretase [3] = target: T1, γ-secretase; experiment: Substrate specificity: FLAG-Aβ secretion by HEK293 cells transfected with FLAG APP C99, anti-FLAG immunoprecipitation/western blot; format: cell-based; details: for (i) Aβ secretion rate of HEK293 cells: 24 h, FLAG APP C99, negative control = 100%
# Description: as §2, §3
# [4] = Example 8, exposure 0.3 μmol/L, 24 h
# [5] = Example 8, exposure 0.3 μmol/L, 24 h, negative control = 100%
# [6] = Example 8, exposure 1 μmol/L, 24 h
# [7] = Example 8, exposure 3 μmol/L, 24 h
# [8] = Example 8, exposure 10 μmol/L, 24 h
Molecule,Aβ (1-42) secretion rate of C99 cells (γ-secretase [1]; [4]),Aβ [(1-40) + (1-42)] secretion rate of C99 cells (γ-secretase [1]; [4]),Aβ (1-40) secretion rate of C99 cells (γ-secretase [1]; [5]),Aβ (1-40) secretion rate of C99 cells (γ-secretase [1]; [6]),Aβ (1-42) secretion rate of C99 cells (γ-secretase [1]; [6]),Aβ [(1-40) + (1-42)] secretion rate of C99 cells (γ-secretase [1]; [6]),Aβ (1-40) secretion rate of C99 cells (γ-secretase [1]; [7]),Aβ (1-42) secretion rate of C99 cells (γ-secretase [1]; [7]),Aβ [(1-40) + (1-42)] secretion rate of C99 cells (γ-secretase [1]; [7]),Aβ (1-40) secretion rate of C99 cells (γ-secretase [1]; [8]),Aβ (1-42) secretion rate of C99 cells (γ-secretase [1]; [8]),Aβ [(1-40) + (1-42)] secretion rate of C99 cells (γ-secretase [1]; [8]),(ii) β-Alcα secretion rate of HEK293 cells (γ-secretase [2]; 0.2 μmol/L),(ii) β-Alcα secretion rate of HEK293 cells (γ-secretase [2]; 2 μmol/L),"(i)/(ii) ratio, Aβ / β-Alcα secretion rates (γ-secretase [3]; 0.2 μmol/L)",(i) Aβ secretion rate of HEK293 cells (γ-secretase [3]; 0.2 μmol/L),"(i)/(ii) ratio, Aβ / β-Alcα secretion rates (γ-secretase [3]; 2 μmol/L)",(i) Aβ secretion rate of HEK293 cells (γ-secretase [3]; 2 μmol/L),other results
"CC(C)C[C@H](NC(=O)[C@H](Cc1ccccc1)C[C@@H](O)[C@H](Cc1ccccc1)NC(=O)OC(C)(C)C)C(=O)N[C@@H](Cc1ccccc1)C(N)=O [L-685, 458, reference compound]",96%,101%,101%,68%,70%,68%,38%,49%,39%,9%,24%,9%,–,–,–,–,–,–,"Aβ (1-40) secretion rate of C99 cells (γ-secretase [1]; Example 9, exposure 0.1 μmol/L): 114%; Aβ (1-42) secretion rate of C99 cells (γ-secretase [1]; Example 9, exposure 0.1 μmol/L): 97%; Aβ [(1-40) + (1-42)] secretion rate of C99 cells (γ-secretase [1]; Example 9, exposure 0.1 μmol/L): 113%; Aβ (1-40) secretion rate of C99 cells (γ-secretase [1]; Example 9, exposure 0.3 μmol/L): 90%; Aβ (1-42) secretion rate of C99 cells (γ-secretase [1]; Example 9, exposure 0.3 μmol/L): 91%; Aβ [(1-40) + (1-42)] secretion rate of C99 cells (γ-secretase [1]; Example 9, exposure 0.3 μmol/L): 90%; Aβ (1-40) secretion rate of C99 cells (γ-secretase [1]; Example 9, exposure 1 μmol/L): 72%; Aβ (1-42) secretion rate of C99 cells (γ-secretase [1]; Example 9, exposure 1 μmol/L): 87%; Aβ [(1-40) + (1-42)] secretion rate of C99 cells (γ-secretase [1]; Example 9, exposure 1 μmol/L): 73%; Aβ (1-40) secretion rate of C99 cells (γ-secretase [1]; Example 9, exposure 3 μmol/L): 32%; Aβ (1-42) secretion rate of C99 cells (γ-secretase [1]; Example 9, exposure 3 μmol/L): 8%; Aβ [(1-40) + (1-42)] secretion rate of C99 cells (γ-secretase [1]; Example 9, exposure 3 μmol/L): 31%; IC50 (γ-secretase [1]; Example 9, read-out: IC50, Aβ (1-40) secretion of C99 cells): 1.8 µM; IC50 (γ-secretase [1]; Example 9, read-out: IC50, Aβ (1-42) secretion of C99 cells): 1.7 µM; Cell viability of C99 cells (C99 cells; exposure 0.3 μmol/L): 133%; Cell viability of C99 cells (C99 cells; exposure 1 μmol/L): 125%; Cell viability of C99 cells (C99 cells; exposure 3 μmol/L): 110%; Cell viability of C99 cells (C99 cells; exposure 10 μmol/L): 99%"
"C[C@H](NC(=O)Cc1cc(F)cc(F)c1)C(=O)N[C@H](C(=O)OC(C)(C)C)c1ccccc1 [DAPT, reference compound]",–,–,–,–,–,–,–,–,–,–,–,–,23%,16%,0.35,8%,1.26,20%,–
"CSCC[C@H](NC(=O)[C@@H](NC(=O)[C@H](CC(C)C)C[C@@H](O)[C@@H](NC(=O)OC(C)(C)C)[C@@H](C)O)c1ccccc1)C(=O)NCc1ccccc1 [TLVM-11, [5S-(tert-butoxycarbonylamino)-4R,6R-dihydroxy-2R-(2-methylpropyl)heptanoyl]-L-phenylglycyl-L-methionine benzylamide]",–,–,–,–,–,–,–,–,–,–,–,–,68%,–,0.12,8%,–,–,"γ cleavage of the Alcα-C150, in words (γ-secretase [2]; 0.2 μmol/L): did not inhibit; cleavage of APP-C99, in words (γ-secretase [3]; 0.2 μmol/L): specifically inhibited"
"CSCC[C@H](NC(=O)[C@H](C)NC(=O)[C@H](CC(C)C)C[C@@H](O)[C@@H](NC(=O)OC(C)(C)C)[C@@H](C)O)C(=O)NCc1ccccc1 [TLVM-10, [5S-(tert-butoxycarbonylamino)-4R,6R-dihydroxy-2R-(2-methylpropyl)heptanoyl]-L-alanyl-L-methionine benzylamide]",–,–,–,–,–,–,–,–,–,–,–,–,–,94%,–,–,0.39,37%,"γ cleavage of the Alcα-C150, in words (γ-secretase [2]; 2 μmol/L): did not inhibit; cleavage of APP-C99, in words (γ-secretase [3]; 2 μmol/L): specifically inhibited"
"Boc-Leu-Val-Met-Leu-OMe (Boc-LVML-OMe; SMILES COC(=O)[C@H](CC(C)C)NC(=O)[C@H](CCSC)NC(=O)[C@@H](NC(=O)[C@H](CC(C)C)NC(=O)OC(C)(C)C)C(C)C) [LVML-1, reference compound]",95%,138%,140%,112%,78%,110%,106%,104%,105%,83%,61%,82%,–,–,–,–,–,–,–
